# Data as given in ChEMBL document CHEMBL1201862, “PubChem BioAssay data set” (2004).
# Calls of active or inactive are those of the source.
# Assays:
# Cytochrome P450 2C9 = Cytochrome P450 2C9 (Homo sapiens, UniProt P11712)
# Cytochrome P450 2C19 = Cytochrome P450 2C19 (Homo sapiens, UniProt P33261); experiment: Cytochrome panel assay with activity outcomes. Panel member name: p450-cyp2c19 Compounds with AC50 equal or less than 10 uM are considered active; assay type: functional; settings: read-out: AC50
# [1] = C. albicans growth with fluconazole, confirmation, fluorescence, retest (AID 2467); assay type: functional, cell-based
# [2] = NIH-3T3 fibroblast cytotoxicity, dose response, cytotoxicity control, cell-based, fluorescence, Alamar Blue, secondary assay (AID 2327); assay type: functional;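 note: NIH-3T3 mouse fibroblasts cultured with fluconazole at 8 µg/mL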
# [3] = molecular target: T1, Sentrin-specific protease 6 (Homo sapiens, UniProt Q9GZR1); assay type: functional;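 note: Luminescence-based dose-response confirmatory assay of SENP6 inhibition, following up an ultra-high-throughput screen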
# T1 sequence (Q9GZR1 whole entry): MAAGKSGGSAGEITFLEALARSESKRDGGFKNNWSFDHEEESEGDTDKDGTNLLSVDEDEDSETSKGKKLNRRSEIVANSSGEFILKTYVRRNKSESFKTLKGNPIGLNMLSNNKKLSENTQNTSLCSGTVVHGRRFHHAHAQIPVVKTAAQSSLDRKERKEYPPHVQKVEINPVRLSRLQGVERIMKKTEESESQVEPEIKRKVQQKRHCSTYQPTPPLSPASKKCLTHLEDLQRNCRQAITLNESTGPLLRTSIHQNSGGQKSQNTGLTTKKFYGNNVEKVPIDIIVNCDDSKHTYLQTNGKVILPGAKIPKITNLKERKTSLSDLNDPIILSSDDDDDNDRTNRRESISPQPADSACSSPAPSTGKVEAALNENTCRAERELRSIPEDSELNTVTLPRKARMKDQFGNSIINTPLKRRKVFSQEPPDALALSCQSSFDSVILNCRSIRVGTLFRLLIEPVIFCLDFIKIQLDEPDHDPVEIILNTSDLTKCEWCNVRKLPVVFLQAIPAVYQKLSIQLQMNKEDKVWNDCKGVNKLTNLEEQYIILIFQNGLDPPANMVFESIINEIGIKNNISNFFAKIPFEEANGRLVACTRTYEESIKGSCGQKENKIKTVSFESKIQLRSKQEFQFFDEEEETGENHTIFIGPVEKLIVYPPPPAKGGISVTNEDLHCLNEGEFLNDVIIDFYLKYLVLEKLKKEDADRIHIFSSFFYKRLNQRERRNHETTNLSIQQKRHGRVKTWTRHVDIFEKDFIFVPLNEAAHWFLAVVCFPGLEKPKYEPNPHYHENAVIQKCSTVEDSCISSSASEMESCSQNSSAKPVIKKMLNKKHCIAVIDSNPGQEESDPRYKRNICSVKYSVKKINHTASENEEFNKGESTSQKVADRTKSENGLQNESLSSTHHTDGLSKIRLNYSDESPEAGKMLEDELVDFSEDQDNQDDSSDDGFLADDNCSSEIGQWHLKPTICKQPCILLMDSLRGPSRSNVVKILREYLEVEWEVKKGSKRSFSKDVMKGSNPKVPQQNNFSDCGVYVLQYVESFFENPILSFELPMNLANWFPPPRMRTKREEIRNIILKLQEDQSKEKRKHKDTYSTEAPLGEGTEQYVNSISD
# [4] = molecular target: T2, Sentrin-specific protease 8 (Homo sapiens, UniProt Q96LD8); assay type: functional;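 note: luminescence read-out of SENP8 inhibition, dose-response confirmation following an ultra-high-throughput screen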
# T2 sequence (Q96LD8 whole entry): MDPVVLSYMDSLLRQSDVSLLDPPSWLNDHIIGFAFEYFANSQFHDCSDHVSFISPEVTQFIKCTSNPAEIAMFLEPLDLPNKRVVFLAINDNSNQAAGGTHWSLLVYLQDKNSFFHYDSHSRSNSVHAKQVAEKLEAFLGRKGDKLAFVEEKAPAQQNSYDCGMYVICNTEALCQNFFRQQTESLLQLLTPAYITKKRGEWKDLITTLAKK
# Caspase-3 = molecular target: T3, Caspase-3 (Homo sapiens, UniProt P42574); assay type: functional;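 note: Dose-response selectivity test against caspase-3 for candidate inhibitors of sentrin-specific proteases (SENPs)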
# T3 sequence (P42574 whole entry): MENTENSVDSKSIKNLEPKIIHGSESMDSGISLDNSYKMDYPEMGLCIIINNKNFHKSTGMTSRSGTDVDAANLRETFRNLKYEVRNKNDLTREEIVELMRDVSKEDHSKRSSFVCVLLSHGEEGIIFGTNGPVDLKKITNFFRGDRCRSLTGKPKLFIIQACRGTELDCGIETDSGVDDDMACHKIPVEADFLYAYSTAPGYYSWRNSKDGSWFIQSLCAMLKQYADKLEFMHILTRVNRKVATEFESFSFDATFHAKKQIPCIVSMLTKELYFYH
# [5] = molecular target: T4, Sentrin-specific protease 7 (Homo sapiens, UniProt Q9BQF6); assay type: functional;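 note: Luminescence-based dose-response confirmation of ultra-high-throughput screening hits, measuring inhibition of SENP7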
# T4 sequence (Q9BQF6 whole entry): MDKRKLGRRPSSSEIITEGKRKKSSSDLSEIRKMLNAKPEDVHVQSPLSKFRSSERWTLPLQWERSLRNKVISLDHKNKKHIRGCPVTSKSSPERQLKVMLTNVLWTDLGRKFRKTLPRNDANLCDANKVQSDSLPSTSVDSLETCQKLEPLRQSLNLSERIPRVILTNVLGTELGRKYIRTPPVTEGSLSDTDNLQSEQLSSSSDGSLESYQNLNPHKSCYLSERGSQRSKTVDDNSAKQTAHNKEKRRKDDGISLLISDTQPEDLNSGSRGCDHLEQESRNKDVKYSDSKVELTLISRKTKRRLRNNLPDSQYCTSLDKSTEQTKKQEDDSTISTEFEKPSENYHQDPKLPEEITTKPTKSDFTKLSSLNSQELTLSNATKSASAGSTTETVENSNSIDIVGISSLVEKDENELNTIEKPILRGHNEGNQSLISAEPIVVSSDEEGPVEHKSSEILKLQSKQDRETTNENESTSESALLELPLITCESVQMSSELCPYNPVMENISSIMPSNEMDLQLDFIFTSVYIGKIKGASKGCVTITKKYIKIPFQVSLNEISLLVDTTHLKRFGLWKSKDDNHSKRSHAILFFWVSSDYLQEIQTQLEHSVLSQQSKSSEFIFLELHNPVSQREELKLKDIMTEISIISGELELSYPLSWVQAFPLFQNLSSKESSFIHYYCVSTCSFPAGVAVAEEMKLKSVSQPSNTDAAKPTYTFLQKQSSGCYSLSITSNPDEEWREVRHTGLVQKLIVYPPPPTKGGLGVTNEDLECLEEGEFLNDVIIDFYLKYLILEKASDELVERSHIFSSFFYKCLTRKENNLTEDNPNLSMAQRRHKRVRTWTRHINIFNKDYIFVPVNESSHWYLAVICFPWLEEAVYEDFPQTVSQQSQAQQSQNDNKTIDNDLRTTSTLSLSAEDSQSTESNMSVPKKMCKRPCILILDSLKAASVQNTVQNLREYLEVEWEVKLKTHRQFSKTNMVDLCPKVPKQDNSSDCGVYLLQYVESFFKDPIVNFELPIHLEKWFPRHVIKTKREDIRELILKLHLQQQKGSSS
# Vero = experiment: cells; assay type: functional; settings: Chlorocebus sabaeus
# [6] = Shn3 3'UTR reporter inhibitors, dose response, cell-based, Clone20 osteoblasts, firefly luciferase, cherry-picked (AID 624132); assay type: functional;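 note: firefly luciferase luminescence from reporter carrying the Shn3 3'UTR in osteoblasts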
# [7] = microbe, parasite or virus in culture; assay type: functional; settings: Mycobacterium tuberculosis
# [8] = HepG2 cell cytotoxicity, dose response, cytotoxicity control for Shn3 inhibitor project, CellTiter-Glo, cherry-picked (AID 624134); assay type: functional, cell-based
# [9] = control 3'UTR Renilla luciferase suppression, dose response, counter-screen for Shn3 inhibitor project, cell-based, Clone20-Shn3RL, cherry-picked (AID 624133); assay type: functional
# Streptokinase A = molecular target: T5, Streptokinase A (Streptococcus pyogenes serotype M1, UniProt P10520); experiment: S. pyogenes streptokinase expression inhibitors, potency, dose response, plasminogen activation absorbance, OD405 (AID 1914); assay type: functional, Streptococcus pyogenes M1 GAS;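 note: secreted streptokinase activity via plasminogen activation per viability signal from cell pellet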
# T5 sequence (P10520 whole entry): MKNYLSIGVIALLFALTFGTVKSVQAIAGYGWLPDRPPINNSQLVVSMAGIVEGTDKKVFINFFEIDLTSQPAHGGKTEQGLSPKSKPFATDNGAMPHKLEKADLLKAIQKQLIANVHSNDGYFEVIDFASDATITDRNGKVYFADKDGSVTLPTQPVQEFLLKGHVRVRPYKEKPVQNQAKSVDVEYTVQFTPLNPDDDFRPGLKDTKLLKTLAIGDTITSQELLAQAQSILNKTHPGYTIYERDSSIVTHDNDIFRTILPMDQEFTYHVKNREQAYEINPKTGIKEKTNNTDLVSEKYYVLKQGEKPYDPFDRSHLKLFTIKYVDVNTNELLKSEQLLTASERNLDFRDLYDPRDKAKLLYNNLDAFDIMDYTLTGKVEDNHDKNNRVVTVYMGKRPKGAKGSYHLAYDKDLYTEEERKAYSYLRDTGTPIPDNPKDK
# [10] = system: Streptococcus sp. 'group A'; experiment: growth inhibition of control SK(-) GAS strain, dose response, counter-screen for streptokinase expression inhibitor project, luminescence, kanamycin, BacTiterGlo, confirmation (AID 1900); assay type: functional, organism-based
# [11] = inhibitors of SNCA 5'UTR-driven reporter translation, confirmation, H4 neuroglioma cells, luminescence (AID 1988); assay type: functional, cell-based
# [12] = Luminescence Cell-Based Dose Response HTS to Identify Inhibitors of 5'UTR Stem-Loop Driven Prion Protein mRNA Translation in H4 Neuroglioblastoma Cells. [Related pubchem assays: 1827 (Project Summary), 1813 (Primary HTS)]; assay type: functional
# [13] = inhibitors of firefly luciferase expression or activity, dose response, H4 neuroglioma cells, luminescence (AID 1990); assay type: functional, cell-based
# Streptococcus = experiment: Group A Streptococcus viability loss, dose response, counter-screen for streptokinase expression inhibitor project, luminescence, BacTiterGlo (AID 1915); assay type: functional, organism-based;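 note: potency for reduction of bacterial viability or growth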
# HEK293 [14] = experiment: NOD1 signaling inhibitors, primary screen, cell-based, luminescence, uHTS (AID 1578); assay type: functional; settings: Homo sapiens
# HEK293 [15] = experiment: NOD2 signaling inhibitors in MDP-stimulated cells, cell-based, uHTS, luminescence (AID 2001); assay type: functional; settings: Homo sapiens
# HEK293 [16] = experiment: cells; assay type: functional, cell-based; settings: Homo sapiens
# HEK293 [17] = experiment: cells; assay type: functional, cell-based; settings: Homo sapiens; remark: listed apart in the source
# Chain of Cytochrome P450 2C9 (P11712 whole entry): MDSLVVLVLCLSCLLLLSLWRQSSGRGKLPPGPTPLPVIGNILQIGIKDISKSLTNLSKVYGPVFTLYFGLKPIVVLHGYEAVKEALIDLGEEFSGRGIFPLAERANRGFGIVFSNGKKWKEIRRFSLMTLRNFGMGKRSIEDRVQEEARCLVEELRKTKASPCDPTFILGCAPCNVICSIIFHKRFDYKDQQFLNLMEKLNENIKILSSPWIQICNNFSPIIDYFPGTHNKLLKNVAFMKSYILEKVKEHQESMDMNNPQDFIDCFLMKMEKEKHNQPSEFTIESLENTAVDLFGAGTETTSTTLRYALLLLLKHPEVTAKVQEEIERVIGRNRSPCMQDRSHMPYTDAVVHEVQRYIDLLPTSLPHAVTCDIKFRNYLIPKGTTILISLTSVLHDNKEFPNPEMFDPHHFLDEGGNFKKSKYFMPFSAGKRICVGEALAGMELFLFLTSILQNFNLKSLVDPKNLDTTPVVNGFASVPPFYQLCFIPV
# Chain of Cytochrome P450 2C19 (P33261 whole entry): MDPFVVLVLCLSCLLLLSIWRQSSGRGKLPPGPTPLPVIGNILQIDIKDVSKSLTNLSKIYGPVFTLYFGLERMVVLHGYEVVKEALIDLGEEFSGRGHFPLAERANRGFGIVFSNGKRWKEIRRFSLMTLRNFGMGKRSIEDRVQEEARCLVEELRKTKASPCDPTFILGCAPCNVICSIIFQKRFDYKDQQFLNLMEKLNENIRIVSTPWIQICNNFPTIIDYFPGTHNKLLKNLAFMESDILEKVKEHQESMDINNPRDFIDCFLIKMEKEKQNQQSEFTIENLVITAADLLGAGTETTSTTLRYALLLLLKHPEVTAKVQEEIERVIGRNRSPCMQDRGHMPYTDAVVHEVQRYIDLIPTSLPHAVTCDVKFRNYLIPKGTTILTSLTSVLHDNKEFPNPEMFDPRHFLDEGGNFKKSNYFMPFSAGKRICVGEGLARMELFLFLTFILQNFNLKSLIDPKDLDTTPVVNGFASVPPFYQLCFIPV
smiles,measurement,setting,value
Cc1ccc(S(C)=NS(=O)(=O)c2ccc(C)cc2)cc1 (stereo unspecified),AC50,Cytochrome P450 2C9,inconclusive
same,AC50,Cytochrome P450 2C19,7.08 µM (inconclusive)
Cc1ccc(C)c(SCC(=O)Nc2nnc(-c3ccccc3)o2)c1,EC50,[1],2.1 µM (active)
same,EC50,[2],> 150 µM (inactive)
Cc1cccc(C(=O)Nc2cccc(C(=O)N/N=C/c3ccc4c(c3)OCO4)c2)c1,IC50,[3],15.2 µM (active)
same,IC50,[4],35 µM (active)
same,IC50,Caspase-3,13 µM (active)
same,IC50,[5],14.2 µM (active)
O=c1c2ccccc2nc(-c2ccc(Cl)cc2Cl)n1O,EC50,[1],2.06 µM (active)
same,EC50,[2],> 160 µM (inactive)
O=C(CC1(O)C(=O)N(Cc2cccc3ccccc23)c2ccccc21)c1cccnc1 (stereo unspecified),CC50,Vero,> 25 µM (active)
Cc1ccc(F)cc1CNC(=O)c1cc(COc2ccc3ncccc3c2)on1,AC50,[6],4.88 µM (active)
same,CC50,[7],> 40 µM (active)
same,AC50,[8],6.33 µM (active)
same,AC50,[9],4.3 µM (active)
O=c1c2ccccc2nnn1COc1cccc(Cl)c1,IC50,[3],34 µM (active)
same,IC50,[4],6.62 µM (active)
same,IC50,Caspase-3,16.1 µM (active)
same,IC50,[5],6.41 µM (active)
O=C(NC1C2CC3CC(C2)CC1C3)c1ccc(N2CCNCC2)c([N+](=O)[O-])c1 (stereo unspecified),CC50,Vero,> 25 µM (active)
Cc1cccc(CNc2cc(-c3cccc(NS(C)(=O)=O)c3)ncn2)c1,AC50,Cytochrome P450 2C9,inconclusive
CC(=O)Nc1ccc(C#Cc2ccc(NC(C)=O)cc2)cc1,EC50,Streptokinase A,> 150 µM (not active)
same,EC50,[10],0.953 µM (active)
same,EC50,[11],8.38 µM (active)
same,EC50,[12],10.5 µM (active)
same,EC50,[13],16.5 µM (active)
same,AC50,Cytochrome P450 2C9,inconclusive
same,AC50,Cytochrome P450 2C19,0.00631 µM (inconclusive)
same,EC50,Streptococcus,9.38 µM (active)
Cn1c(O)c(N=NC(S)=Nc2ccccc2F)c2cc(S(=O)(=O)N3CCOCC3)ccc21,EC50,Streptokinase A,> 150 µM (not active)
same,EC50,[10],7.47 µM (active)
same,EC50,HEK293 [14],> 20 µM (inactive)
same,IC50,HEK293 [15],9.77 µM (active)
same,IC50,HEK293 [16],> 20 µM (inactive)
same,IC50,HEK293 [17],19.1 µM (active)
same,EC50,Streptococcus,44.2 µM (active)
